Experimental findings from patent US9365549B2, “Hepatitis C virus inhibitors” (THERAVANCE BIOPHARMA R&D IP, LLC, priority 2012, dated 2016) are described below.

For test [1], the system named is HCV genotype 1b replicon cell line. Nature of the test: HCV Genotype 1b Replicon Assay. To be noted: Hepatitis C virus, Huh-7, Huh7 cell background, luciferase activity readout, 48 hours. In kind it is cell-based. From the text: Assay 1: HCV Genotype 1b Replicon Assay
The HCV genotype 1b replicon cell line was obtained from Apath LLC (Brooklyn, N.Y.) (APC144; Huh7 cell background). This subgenomic replicon contains the N-terminus of the HCV core protein fused to the neomycin-resistance selectable marker. The EMCV IRES lies downstream and drives expression of humanized Renilla luciferase fused to the non-structural proteins NS3-NS5B. This cell line was used to determine compound potency using the luciferase activity readout as a measurement of compound inhibition of replicon levels.
(§1) Cells were grown at 37° C. in a 5% CO2 humidified incubator in DMEM (Invitrogen) with 10% FBS (HyClone), 1×NEAA (Invitrogen), 1× Pen-Strep (Invitrogen), and 500 μg/mL G418 (Invitrogen). On day 1 of the assay, cells were plated at 10,000 cells/well in white 96-well tissue culture plates (Costar) in 200 μL media lacking G418. […] Compounds were initially diluted in DMSO and then diluted another 200× in media to bring the final DMSO concentration down to 0.5%. The cells were incubated with test compounds for 48 hours. At the end of the incubation period, media and compound were removed from the plates and the luciferase activity was determined using Promega Renilla-Glo reagents.
To analyze the data, the luciferase activity was plotted vs. the compound concentration, and EC50 values were determined from a 4-parameter robust fit model with the GraphPad Prism software package (GraphPad Software, Inc., San Diego, Calif.). Results are expressed as the negative decadic logarithm of the EC50 value, pEC50.

Test [2] relates to HCV genotype 1a replicon cell line. Nature of the test: HCV Genotype 1a Replicon Assay. Format: cell-based. To be noted: Hepatitis C virus, Huh7.5 cell background, NS3-specific protease activity in lysates, 48 or 72 hours, read-out: pEC50 Genotype 1a (converted). The protocol: Assay 2: HCV Genotype 1a Replicon Assay
The HCV genotype 1a replicon cell line was obtained from Apath LLC (APC89; Huh7.5 cell background). This subgenomic replicon contains the N-terminus of the HCV core protein fused to the neomycin-resistance selectable marker. The EMCV IRES lies downstream and drives expression of the non-structural proteins NS3-NS5B. Compound potencies were determined using the NS3-specific protease activity in lysates as a measurement of compound inhibition of replicon levels.
as §1, with “850” for “500”, “15,000” for “10,000”, “black” for “white”, “48 or 72” for “48”, “plates.” for “plates and the luciferase activity was determined using Promega Renilla-Glo reagents.”
To determine the NS3-specific protease activity in lysates, the cells were lysed at room temperature in 50 μL/well of 50 mM Hepes pH 7.5, 150 mM NaCl, 15% Glycerol, 0.15% Triton X-100, 10 mM DTT for 20 minutes with shaking. 50 μL of an NS3/4a protease-specific FRET substrate (Anaspec RET S1 Cat#22991) was then added to the wells at a final concentration of 15 μM. The plates were incubated at 37° C. for 20 minutes, which corresponds to a timepoint at which the protease activity is still in the linear phase. Protease activity was determined by measuring fluorescence (Excitation: 340 nm; Emission: 509 nm).
To analyze the data, the fluorescence was plotted vs. the compound concentration, and EC50 values were determined from a 4-parameter robust fit model using GraphPad Prism software.

In the case of `COC(=O)N[C@H](C(=O)N1CC(C2CC2)=C[C@H]1c1nc(-c2ccc(-c3cc(Cl)c(NC(=O)c4ccc(N5CCN(C(=O)[C@H]6CC6(C)C)C[C@H]5C)nc4)cc3OC(F)(F)F)cc2)c[nH]1)C(C)C` [Example 4, ((S)-1-{(S)-2-[4-(5′-Chloro-4′-{[6-((R)-4-(S)-2,2-dimethylcyclopropanecarbonyl-2-methyl-piperazin-1-yl)-pyridine-3-carbonyl]-amino}-2′-trifluoromethoxy-biphenyl-4-yl)-1H-imidazol-2-yl]-4-cyclopropyl-2,5-dihydro-pyrrole-1-carbonyl}-2-methyl-propyl)-carbamic acid methyl ester], the EC50 in test [1] and in test [2] was under 0.1 nM each time.
With `COC(=O)N[C@H](C(=O)N1C[C@@H](C)C[C@H]1c1nc2c(ccc3cc(-c4cc(Cl)c(NC(=O)c5ccc(N6CCN(C(=O)C(C)(C)C)C[C@H]6C)nc5)cc4OC(F)(F)F)ccc32)[nH]1)C(C)C` [Example 8, [(S)-1-((2S,4S)-2-{7-[5-Chloro-4-({6-[(R)-4-(2,2-dimethyl-propionyl)-2-methyl-piperazin-1-yl]-pyridine-3-carbonyl}-amino)-2-trifluoromethoxy-phenyl]-3H-naphtho[1,2-d]imidazol-2-yl}-4-methyl-pyrrolidine-1-carbonyl)-2-methyl-propyl]-carbamic acid methyl ester], the EC50 in test [1] and in test [2] was under 0.1 nM throughout.
As to `COC(=O)N[C@H](C(=O)N1C[Si](C)(C)C[C@H]1c1nc(-c2ccc(-c3ccc(NC(=O)c4ccc(N5CCN(C(=O)C(C)(C)C)C[C@H]5C)nc4)cc3OC(F)(F)F)cc2)c[nH]1)C(C)C` [Example 7, [(S)-1-((R)-5-{4-[4′-({6-[(R)-4-(2,2-dimethyl-propionyl)-2-methyl-piperazin-1-yl]-pyridine-3-carbonyl}-amino)-2′-trifluoromethoxy-biphenyl-4-yl]-1H-imidazol-2-yl}-3,3-dimethyl-[1,3]azasilolidine-1-carbonyl)-2-methyl-propyl]-carbamic acid methyl ester], the EC50 in test [1] was under 0.1 nM; in test [2] it was 0.1 to 1 nM.
The like results for `COC(=O)N[C@H](C(=O)N1C[C@@H](C)C[C@H]1c1nc2c(ccc3cc(-c4cc(F)c(NC(=O)c5ccc(N6CCN(C(=O)C(C)(C)C)C[C@H]6C)nc5)cc4OC(F)(F)F)ccc32)[nH]1)C1CCOCC1` [Example 5-2] were, in that order, under 0.1 nM and under 0.1 nM.
The corresponding values for `COC(=O)N[C@H](C(=O)N1C[C@@H](C)C[C@H]1c1nc2c(ccc3cc(-c4cc(Cl)c(NC(=O)c5ccc(N6CCN(C(=O)[C@H]7CC7(C)C)C[C@H]6C)nc5)cc4OC(F)(F)F)ccc32)[nH]1)C(C)C` [Example 10, [(S)-1-((2S,4S)-2-{7-[5-Chloro-4-({6-[(R)-4-((S)-2,2-dimethylcyclopropanecarbonyl)-2-methyl-piperazin-1-yl]-pyridine-3-carbonyl}-amino)-2-trifluoromethoxy-phenyl]-3H-naphtho[1,2-d]imidazol-2-yl}-4-methyl-pyrrolidine-1-carbonyl)-2-methyl-propyl]-carbamic acid methyl ester] are under 0.1 nM and under 0.1 nM.
Consider `COC(=O)N[C@H](C(=O)N1C[C@@H](C)C[C@H]1c1nc2c(ccc3cc(-c4cc(Cl)c(C(=O)Nc5ccc(N6CCN(C(=O)C(C)(C)CO)C[C@H]6C)nc5)cc4OC(F)(F)F)ccc32)[nH]1)C1CCOCC1` [Example 5-7], for which the EC50 in test [1] and in test [2] was under 0.1 nM throughout.
Turning to `COC(=O)N[C@H](C(=O)N1C[C@@H](C)C[C@H]1c1nc2c(ccc3cc(-c4cc(Cl)c(NC(=O)c5ccc(N6CCN(C(=O)C(C)(C)C)C[C@H]6C)nc5)cc4OC(F)(F)F)ccc32)[nH]1)C1CCOCC1` [Example 14, [(S)-2-((2S,4S)-2-{7-[4-({6-[(R)-4-(2,2-Dimethyl-propionyl)-2-methyl-piperazin-1-yl]-pyridine-3-carbonyl}-amino)-5-chloro-2-trifluoromethoxy-phenyl]-3H-naphtho[1,2-d]imidazol-2-yl}-4-methyl-pyrrolidin-1-yl)-2-oxo-1-(tetrahydropyran-4-yl)-ethyl]-carbamic acid methyl ester], the EC50 in test [1] and in test [2] was under 0.1 nM throughout.
As for `COC(=O)N[C@H](C(=O)N1[C@@H]2C[C@@H]2CC[C@H]1c1nc(-c2ccc(-c3cc(Cl)c(NC(=O)c4ccc(N5CCN(C(=O)C(C)(C)C)C[C@H]5C)nc4)cc3OC(F)(F)F)cc2)c[nH]1)C(C)C` [Example 5-10], the EC50 in test [1] and in test [2] was under 0.1 nM throughout.
Turning to `COC(=O)N[C@H](C(=O)N1C[C@@H](C)C[C@H]1c1nc2c(ccc3cc(-c4ccc(C(=O)Nc5ccc(N6CCN(C(=O)C(C)(C)C)C[C@H]6C)nc5)cc4OC(F)(F)F)ccc32)[nH]1)C(C)C` [Example 13, ((S)-1-{(2S,4S)-2-[7-(4-{6-[(R)-4-(2,2-Dimethyl-propionyl)-2-methyl-piperazin-1-yl]-pyridin-3-ylcarbamoyl}-2-trifluoromethoxy-phenyl)-3H-naphth[1,2-d]imidazol-2-yl]-4-methyl-pyrrolidine-1-carbonyl}-2-methyl-propyl)-carbamic acid methyl ester], the EC50 in test [1] and in test [2] was under 0.1 nM throughout.
As for `COC(=O)N[C@H](C(=O)N1C[Si](C)(C)C[C@H]1c1nc(-c2ccc(-c3cc(Cl)c(NC(=O)c4ccc(N5CCN(C(=O)[C@H]6CC6(C)C)C[C@H]5C)nc4)cc3OC(F)(F)F)cc2)c[nH]1)C(C)C` [Example 5, ((S)-1-{(R)-5-[4-(5′-Chloro-4′-{[6-((R)-4-(S)-2,2-dimethylcyclopropanecarbonyl-2-methyl-piperazin-1-yl)-pyridine-3-carbonyl]-amino}-2′-trifluoromethoxy-biphenyl-4-yl)-1H-imidazol-2-yl]-3,3-dimethyl-[1,3]azasilolidine-1-carbonyl}-2-methyl-propyl)-carbamic acid methyl ester], the EC50 in test [1] and in test [2] was under 0.1 nM in each case.
As to `COC(=O)N[C@H](C(=O)N1C[C@@H](C)C[C@H]1c1nc2c(ccc3cc(-c4cc(Cl)c(NC(=O)c5ccc(N6CCN(C(=O)C(C)(C)CO)C[C@H]6C)nc5)cc4OC(F)(F)F)ccc32)[nH]1)C1CCOCC1` [Example 15, [(S)-2-((2S,4S)-2-{7-[4-({6-[(R)-4-(3-Hydroxy-2,2-dimethyl-propionyl)-2-methyl-piperazin-1-yl]-pyridine-3-carbonyl}-amino)-5-chloro-2-trifluoromethoxy-phenyl]-3H-naphtho[1,2-d]imidazol-2-yl}-4-methyl-pyrrolidin-1-yl)-2-oxo-1-(tetrahydropyran-4-yl)-ethyl]-carbamic acid methyl ester], the EC50 in test [1] and in test [2] was under 0.1 nM throughout.
As to `COC(=O)N[C@H](C(=O)N1C[C@@H](C)C[C@H]1c1nc2c(ccc3cc(-c4cc(Cl)c(C(=O)Nc5ccc(N6CCN(C(=O)C(C)(C)C)C[C@H]6C)nc5)cc4OC(F)(F)F)ccc32)[nH]1)C1CCOCC1` [Example 5-6], the EC50 in test [1] and in test [2] was under 0.1 nM throughout.
In the case of `COC(=O)N[C@H](C(=O)N1C[C@@H](C)C[C@H]1c1nc2c(ccc3cc(-c4cc(F)c(NC(=O)c5ccc(N6CCN(C(=O)C(C)(C)CO)C[C@H]6C)nc5)cc4OC(F)(F)F)ccc32)[nH]1)C1CCOCC1` [Example 5-3], the EC50 in test [1] and in test [2] was under 0.1 nM each time.
